* marks the point of attachment. Cbz = O=C(OCc1ccccc1)*; CH2F = FC*
Experiments:
HT-1080 xenograft tumors = assay: HT-1080 tumor xenograft study in mice; settings: 40 mg/kg i.p. daily for 14 days
Description: The injections were repeated daily for 14 days. […] For the sorafenib experiment, the formulation used was 40 mg/kg sorafenib in 5% DMSO, 20% ethanol in water containing 30% w/v cyclodextrin. […] Tumor size was measured daily using calipers and mouse weight was measured daily.
The efficacy of the combined treatment regimen of radiation and ferroptosis inducer was evaluated in an in vivo tumor model. […] Athymic nude mice were implanted with subcutaneous HT-1080 fibrosarcoma cells to form xenograft tumors.

[1] = system: GSH in HT-1080 xenograft tumors; assay: Reduced glutathione in xenograft tumor tissue
Description: The cell pellet was resuspended in 100 μl of RIPA buffer and homogenized by pipetting. The lysate was centrifuged at 16,700×g at 4° C. for 15 min, and cleared lysate was used to determine the amount of GSH in the sample. We used the GSH/GSSG ratio detection assay kit (Abcam, #ab138881) and followed the product instructions to determine GSH levels.
The injections were repeated daily for 14 days. […] Tumor size was measured daily using calipers and mouse weight was measured daily. The animal protocols containing all the procedures were approved by Columbia University's IACUC.

HT-1080 cells [2] = assay: Clonogenic assay with Cs-137 gamma radiation, HT-1080; assay type: cell-based; design: key to CDI with radiation: CDI = AB/(A×B) of surviving fractions; <1 synergy; settings: for CDI with radiation: 5 μM sorafenib, HT-1080; for Enhancement of radiation effect on clonogenic survival: HT-1080, cell death inducer plus radiation; for CDI with 4 Gy IR / CDI with 2 Gy IR: HT-1080 cells, CDI<1 synergy; for CDI with 2 Gy IR: inducer concentration (300 nM IKE, 20 nM RSL3, 1 nM staurosporine, 2 nM doxorubicin, 300 nM rapamycin, 100 ng/mL TNF + 20 μM Z-VAD-FMK + 300 nM birinapant); for Colony formation after radiation alone: HT-1080, 2 or 4 Gy radiation, no ferroptosis inducer
Description: 500 cells were seeded per well in 6-well plates in their respective growth media and incubated overnight. The next day, cells were co-treated with DMSO or compounds and radiation using a Gammacell 40 Caesium-137 irradiator (Theratronics). Plates were monitored every day using a light microscope for formation of colonies in the DMSO-treated wells. When colonies of >50 cells are clearly visible, the growth medium was discarded from all plates. The cells were washed with PBS, then fixed and stained with crystal violet solution (0.05% crystal violet, 1% formaldehyde, 1% methanol in PBS). Colonies were then directly visualized and counted.
We tested their ability to prevent clonogenic growth, along with DMSO-treated controls.
The coefficient of drug interaction (CDI), used to compute interaction between two drugs, was used to quantify synergy between cell death inducers and radiation according to the formula CDI=AB/(A×B), where AB is the surviving fraction of the combination treatment, and A and B are the surviving fractions of the individual treatments.

[3] = system: TM00219 patient-derived xenograft tumors; assay: Patient-derived xenograft study in mice (TM00219 lung adenocarcinoma); assay type: in vivo; settings: 40 mg/kg i.p. daily for 14 days, NSG mice
Description: The experiment was conducted according to the same protocol as the HT-1080 tumor xenograft study, with the exception that a single dose of radiation (sham or 6 Gy) was delivered to the tumor on day 1 of the experiment.
Finally, the effect of ferroptosis-inducing system xc^− inhibitors, in combination with radiation, was tested on a patient-derived xenograft (PDX) model of lung adenocarcinoma, which is another type of cancer commonly treated with radiation therapy. NSG mice engrafted with a human lung adenocarcinoma tumor (TM00219) were evaluated.

[4] = system: reduced glutathione (GSH) in HT-1080 cells; assay: Reduced glutathione measurement in cells; assay type: cell-based; settings: HT-1080, 6 Gy radiation for 24 hours, vs DMSO, sorafenib alone or radiation alone
Description: Cystine taken up by system xc^− is reduced to cysteine, a building block in the biosynthesis of glutathione. […] Using a fluorometric GSH probe, we observed that treatment with 2 or 6 Gy radiation for 24 hours depleted GSH in a dose-dependent manner in HT-1080 cells (FIG. 2E). […] Indeed, the decrease in colony formation of HT-1080 cells following 2 or 4 Gy radiation was rescued by either glutathione methyl ester or N-acetylcysteine, which is a biological precursor to glutathione (FIG. 9).

cleaved caspase-3 = assay: Western blot of cleaved caspase-3; assay type: cell-based
Description: 1 million cells were seeded in 10 cm dishes and treated with compounds and/or radiation on the next day. […] After quantification by Bradford, samples were mixed with 5×SDS loading buffer and separated by SDS-polyacrylamide gel electrophoresis. After transfer, membranes were blocked for 10 min in Tris-buffered saline (pH 7.4) with 1% Tween-20 (TBS-T) with 5% milk and incubated in primary antibody overnight at 4° C. Following 3× for 5 min washes in TBS-T, the membrane was incubated with secondary antibodies for 1 hr. The membrane was washed again in TBST 3× for 5 min prior to visualization using enhanced chemiluminescence (ECL Western Blotting Substrate, Pierce). Antibody for cleaved caspase 3 (Cell Signaling Technology, #9661) was used at 1:1000 and detected using a Peroxidase AffiniPure Goat Anti-Rabbit IgG (H+L) (Jackson ImmunoResearch, 111-295-144) at 1:5000 dilution.
DNA damage is a potent inducer of apoptosis. […] Despite this, some quantity of 17-kDa cleaved caspase-3 was still detectable in the Z-VAD-FMK-treated sample. To further check for potential radiation-induced apoptosis in this model at a later time point, we attempted to rescue the effects of radiation using 100 μM Z-VAD-FMK after 48, 72, and 96 h (FIG. 10).

HT-1080 cells [5] = assay: Cell Titer Glo cell viability assay with radiation; assay type: cell-based; settings: for Cell viability after radiation (ATP-based luciferase assay): HT-1080, 4 Gy radiation for 24 h
Description: HT-1080 cells were plated at 1,000 cells per well in white 96-well plates (100 uL per well) in technical duplicates. The cells were then treated with vehicle (DMSO), Ferrostatin-1, DFO, Z-VAD-FMK or Necrostatin-1S and incubated overnight. […] After another 24 h, 100 uL of 50% Cell Titer Glo (Promega) 50% cell culture medium was added to each well and incubated at room temperature with shaking for 15 min. Luminescence was measured using a Victor X5 plate reader (PerkinElmer). Experiments were performed three independent times with different passages for each cell line.

[6] = system: models of glioma, melanoma, and breast cancer; settings: Cobler et al., 2018, Nagane et al., Sleire et al., 2015; cited from earlier work

## CNC(=O)c1cc(Oc2ccc(NC(=O)Nc3ccc(Cl)c(C(F)(F)F)c3)cc2)ccn1 [sorafenib]
HT-1080 xenograft tumors
  Tumor volume, sorafenib alone vs control: No difference was observed
[1]; 40 mg/kg sorafenib i.p. 14 days
  GSH in tumor tissue, sorafenib vs vehicle: significantly lower GSH
[1]; 40 mg/kg sorafenib i.p. 14 days plus 6 Gy on days 1 and 3
  GSH in tumor tissue, dual-treated: further significant GSH depletion
HT-1080 cells [2]; 2 Gy
  CDI with radiation: 0.65
HT-1080 cells [2]; 4 Gy
  CDI with radiation: 0.47
[3]; 6 Gy on day one
  Tumor growth, combination with radiation vs all other groups: significant tumor growth inhibition
[3]
  Tumor growth, drug alone vs vehicle only: significant tumor control
[4]
  Levels of GSH, sorafenib plus radiation: significant depletion of GSH

## CN[C@@H]1C[C@H]2O[C@@](C)([C@@H]1OC)n1c3ccccc3c3c4c(c5c6ccccc6n2c5c31)C(=O)NC4 [staurosporine]
HT-1080 cells [2]
  Enhancement of radiation effect on clonogenic survival: only slightly enhancing radiation-induced cell death
  CDI with 4 Gy IR: 0.83
  CDI with 2 Gy IR: 1.1
Cleaved caspase-3; HT-1080, IKE or RSL3 24 h, staurosporine 500 nM for 6 h
  Cleavage of caspase-3, compound alone: induced cell death along with levels of caspase-3 cleavage

## COc1cccc2c1C(=O)c1c(O)c3c(c(O)c1C2=O)C[C@@](O)(C(=O)CO)C[C@@H]3O[C@H]1C[C@H](N)[C@H](O)[C@H](C)O1 [doxorubicin]
HT-1080 cells [2]
  Enhancement of radiation effect on clonogenic survival: only slightly enhancing radiation-induced cell death
  CDI with 4 Gy IR: 0.9
  CDI with 2 Gy IR: 1.07

## CO[C@H]1C[C@@H]2CC[C@@H](C)[C@@](O)(O2)C(=O)C(=O)N2CCCC[C@H]2C(=O)O[C@H]([C@H](C)C[C@@H]2CC[C@@H](O)[C@H](OC)C2)CC(=O)[C@H](C)/C=C(\C)[C@@H](O)[C@@H](OC)C(=O)[C@H](C)C[C@H](C)/C=C/C=C/C=C/1C [rapamycin]
HT-1080 cells [2]
  CDI with 4 Gy IR: 0.62
  CDI with 2 Gy IR: 0.89

## COC(=O)CNC(=O)[C@H](CS)NC(=O)CC[C@H](N)C(=O)O [glutathione methyl ester]
HT-1080 cells [2]
  Colony formation after radiation alone: rescued

## Cn1cnc(N)c2ncnc1-2 [3-methyladenine]
HT-1080 cells [5]
  Cell viability after radiation (ATP-based luciferase assay): also rescued cells

## Cc1c(C)c2c(c(C)c1O)CCC(C)(C(=O)O)O2 (stereo not drawn) [trolox]
HT-1080 cells [2]
  Colony formation after radiation alone: partially rescued cell death induced by radiation alone
HT-1080 cells [2]; HT-1080, co-treatment with ferroptosis inhibitor
  Synergy between IKE or RSL3 and radiation in colony formation: suppress the synergy

## Cbz-Val-Ala-Asp-CH2F
HT-1080 cells [5]; HT-1080, 100 μM Z-VAD-FMK, 48, 72, and 96 h
  Rescue of cell viability after radiation at later time points: no significant rescue of cell viability
HT-1080 cells [5]
  Cell viability after radiation (ATP-based luciferase assay): not
Cleaved caspase-3; HT-1080, 500 nM staurosporine plus 100 μM Z-VAD-FMK
  Staurosporine-induced cell death: rescued from staurosporine-induced cell death

## CN1C(=O)NC(Cc2c[nH]c3c(Cl)cccc23)C1=O (stereo not drawn) [necrostatin-1S]
HT-1080 cells [5]
  Cell viability after radiation (ATP-based luciferase assay): not

## O=C(O)c1cc(/N=N/c2ccc(S(=O)(=O)Nc3ccccn3)cc2)ccc1O [sulfasalazine]
[6]
  Potentiation of radiation (prior reports): potentiate radiation

## CC(=O)N[C@@H](CS)C(=O)O [N-acetylcysteine]
HT-1080 cells [2]
  Colony formation after radiation alone: rescued

From patent US20220193047A1, “METHODS OF ENHANCING RADIOTHERAPY USING FERROPTOSIS INDUCERS AS RADIOSENSITIZERS” (THE TRUSTEES OF COLUMBIA UNIVERSITY IN THE CITY OF NEW YORK, priority 2019, published 2022)
